Source: patent US20230181482A1, “LIPIDS FOR DELIVERY OF NUCLEIC ACID SEGMENTS” (AstraZeneca AB, priority 2021, published 2023)

Legend:
[1] = mRNA encapsulation efficiency of LNP formulations (Quant-it Ribogreen assay with Triton-X100); type: physicochemical; details: DMPE-PEG2000
In short: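 LNPs of ionizable lipid/cholesterol/DSPC/polymer-lipid (50/38.5/10/1.5 mol%, 12.5 mM total lipid) formed by microfluidic mixing with eGFP mRNA in 50 mM citrate, pH 3, at 3:1 aqueous:ethanol and N/P 3:1 or 6:1. Encapsulation efficiency measured by RiboGreen with and without Triton-X100 disruption.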

[2] = LNP particle size by dynamic light scattering (Zetasizer Nano ZS); type: physicochemical; details: DMPE-PEG2000
In short: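 eGFP mRNA in 50 mM citrate (from pH 3 buffer) was mixed microfluidically (Aq:EtOH 3:1, 12 mL/min) with ethanolic lipids, ionizable lipid/cholesterol/DSPC/polymer-conjugated lipid 50/38.5/10/1.5 mol %, 12.5 mM total, at N/P 3:1 or 6:1. Dynamic light scattering gave z-average diameter. Number-weighted distributions used refractive index 1.45.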

[3] = tested on: human broncho-epithelial cell line 16HBE; assay: In vitro expression of eGFP in 16HBE cells (GFP ELISA); type: cell-based; details: for eGFP in 16HBE: LNP formulation nos. 1 and 7 (N/P 3:1), 24 h, 125 ng mRNA per well, (standard error of the mean); for Ratio Lipid/MC3: ratio of eGFP expression in 16HBE to the MC3 formulation
Protocol: In vitro expression of EGFP protein from LNP formulation nos. 1 and 7 described in Example 58 was tested in the human broncho-epithelial cell line 16HBE (Sigma-Aldrich SCC150. 16HBE cells were maintained in DMEM, low glucose with GlutaMAX™+pyruvate (Gibco 21885-025) supplemented with MEM Non-Essential Amino Acids (Gibco 11140035) and 10% Heat-Inactivated Fetal Calf Serum (HI-FCS). The cells were cultured at 37° C. in a humidified atmosphere with 5% CO2. The day prior to an experiment, cells were detached from culture flasks using TrypLE™ (Gibco 12604013) and seeded in cell culture treated 96-well plates (Greiner Bio-One #655090) at a density of 20.000 cells per well. At the day of an experiment, 1 hour before incubation with LNPs, medium was removed and replaced with 95 ul DMEM including 1% HI-FCS. After 1 hour of conditioning, 5 ul of LNPs in PBS was added and mixed by a Bravo robot, resulting in a final concentration of 50-125 ng mRNA per well. Cells were then incubated for 24 h at 37° C. in a humidified atmosphere with 5% CO2. Absolute quantification of EGFP protein was done using ELISA (GFP SimpleStep ELISA kit, Abcam #ab171581). After 24 h of incubation, cells were lysed by adding 100 ul of lysis buffer to each well (Lysis buffer included in the kit, or Abcam products #ab193970 and #ab193971) Cells were then lysed by a freeze-thaw cycle in lysis buffer. Lysates were measured in appropriate dilutions according to the kit manufacturer's instructions. Results are reported as number of EGFP molecules expressed per mRNA dosed, after 24 h, calculated from the values of 125 ng mRNA per well. Results are plotted as Mean+SEM from triplicate values.
The expression of eGFP in 16HBE cytosol proves the function of the used LNP composition of eGFP mRNA in promoting gene transfection and […]. The quantification of eGFP allows to compare different LNP compositions with the MC3-based lipid composition, used as a comparator, with regard to the induction of protein expression in 16HBE to obtain the ratio of lipid to MC3. In this application, the LNP compositions differ in their ionizable lipid (IL) component. […] (see FIG. 1).

Female BALB/c mice = assay: eGFP expression in the liver at 24 hours after intravenous administration of LNP formulations to mouse (ELISA); type: in vivo; details: LNP N/P 3:1, DMPE-PEG2000
In short: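 Mice (6-8 weeks, n=4/group) received a slow IV tail-vein bolus of LNP formulation at 0.3 mg/kg. Livers were harvested 24 hours post-dose and eGFP quantified by ELISA.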

[4] = Table 1, LNP with eGFP mRNA, N/P ratio 3:1
[5] = Table 1, number-average particle diameter, N/P ratio 3:1
[6] = Table 1, z-average particle diameter, N/P ratio 3:1

Compound	% EE [1, 4] [%]	<d>N (nm) [2, 5] [nm]	<d>Z (nm) [2, 6] [nm]	eGFP in 16HBE [3]	Ratio Lipid/MC3 [3]	% EE ([1]; Table 6, N/P ratio 3:1) [%]	<d>N (nm) ([2]; Table 6, N/P ratio 3:1)	<d>Z (nm) ([2]; Table 6, N/P ratio 3:1)	Liver eGFP protein (ng/g tissue) (Female BALB/c mice; Table 6, 0.3 mg/kg)	also measured
CCCCCC(CCCCC)CCOC(=O)CCCCCCCC(CCCCCCCC(=O)OCCC(CCCCC)CCCCC)NC1CC2(COC2)C1 [Compound 1, Bis(3-pentyloctyl) 9-((2-oxaspiro[3.3]heptan-6-yl)amino)heptadecanedioate]	97	68	84	0.044 (±0.004) number of protein molecules per number of dosed mRNA molecules	1.9	–	–	–	–	% EE ([1]; Table 1, LNP with eGFP mRNA, N/P ratio 6:1): 94%; <d>N (nm) ([2]; Table 1, number-average particle diameter, N/P ratio 6:1): 57 nm; <d>Z (nm) ([2]; Table 1, z-average particle diameter, N/P ratio 6:1): 74 nm
CCCCCCCCC(CCCCCCCC)OC(=O)CCCCCCCC(CCCCCCCCCC(=O)OC(C)CCCCCC)NC1CC2(COC2)C1 (stereo not shown) [Compound 55, 1-(heptadecan-9-yl) 19-(octan-2-yl) 9-((2-oxaspiro[3.3]heptan-6-yl)amino)nonadecanedioate]	–	–	–	–	–	93	62	77	18695.5	–
CCCCCCCCCCC(C)OC(=O)CCCCCC(CCCCCCCC(=O)OC(CCCCCCCC)CCCCCCCC)NC1CC2(COC2)C1 (stereo not shown) [Compound 56, 1-(dodecan-2-yl) 15-(heptadecan-9-yl) 7-((2-oxaspiro[3.3]heptan-6-yl)amino)pentadecanedioate]	–	–	–	–	–	96	58	73	10270.4	–
CCCCC/C=C\C/C=C\CCCCCCCCC(CCCCCCCC/C=C\C/C=C\CCCCC)OC(=O)CCCN(C)C [MC3, [(10Z,13Z)-1-[(9Z,12Z)-octadeca-9,12-dienyl]nonadeca-10,13-dienyl] 4-(dimethylamino)butanoate, reference compound]	99	72	86	0.023 (±0.001) number of protein molecules per number of dosed mRNA molecules	1	98	61	74	3802.0	% EE ([1]; Table 3, N/P ratio 3:1): 98%; % EE ([1]; Table 4, N/P ratio 3:1): 98%; % EE ([1]; Table 5, N/P ratio 3:1): 98%; <d>N (nm) ([2]; Table 3, N/P ratio 3:1): 63 nm; <d>Z (nm) ([2]; Table 3, N/P ratio 3:1): 79 nm; <d>N (nm) ([2]; Table 4, N/P ratio 3:1): 71 nm; <d>Z (nm) ([2]; Table 4, N/P ratio 3:1): 88 nm; <d>N (nm) ([2]; Table 5, N/P ratio 3:1): 66 nm; <d>Z (nm) ([2]; Table 5, N/P ratio 3:1): 82 nm; Liver eGFP protein (ng/g tissue) (Female BALB/c mice; Table 3, 0.3 mg/kg): 3091.5 ng/g tissue; Liver eGFP protein (ng/g tissue) (Female BALB/c mice; Table 4, 0.3 mg/kg): 916.4 ng/g tissue; Liver eGFP protein (ng/g tissue) (Female BALB/c mice; Table 5, 0.3 mg/kg): 1114.4 ng/g tissue
